Test results: PubChem BioAssay (NCI)
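Values below derive from 48-hour exposures of cells grown in 96-well plates, with endpoints linearly interpolated between the two concentrations bracketing the appropriate inhibition level. Abbreviation: GI50, concentration required for 50% inhibition of growth. The concentration for full growth arrest is given as TGI.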

Legend:
Assay in all cases: NCI-60 cell line screen, 48 h
DU-145 prostate = tested on: DU-145 prostate
HS 578T breast = tested on: HS 578T breast
HT29 colon = tested on: HT29 colon
LOX IMVI melanoma = tested on: LOX IMVI melanoma
NCI-H23 lung = tested on: NCI-H23 lung
NCI-H460 lung = tested on: NCI-H460 lung
RPMI-8226 leukemia = tested on: RPMI-8226 leukemia
SK-MEL-5 melanoma = tested on: SK-MEL-5 melanoma
SK-OV-3 ovarian = tested on: SK-OV-3 ovarian
EKVX NSCLC = tested on: EKVX NSCLC

Compound	GI50 (DU-145 prostate)	TGI (DU-145 prostate)	GI50 (HS 578T breast)	TGI (HS 578T breast)	GI50 (HT29 colon)	TGI (HT29 colon)	GI50 (LOX IMVI melanoma)	TGI (LOX IMVI melanoma)	GI50 (NCI-H23 lung)	TGI (NCI-H23 lung)	GI50 (NCI-H460 lung)	TGI (NCI-H460 lung)	GI50 (RPMI-8226 leukemia)	TGI (RPMI-8226 leukemia)	GI50 (SK-MEL-5 melanoma)	TGI (SK-MEL-5 melanoma)	GI50 (SK-OV-3 ovarian)	TGI (SK-OV-3 ovarian)	TGI (EKVX NSCLC)	GI50 (EKVX NSCLC)
CCOC(=O)c1ccccc1SC(C[N+](=O)[O-])c1ccccc1 (stereo not drawn)	5.91 µM	18.4 µM	12.6 µM	47.1 µM	2.55 µM	5.72 µM	1.81 µM	3.51 µM	12.3 µM	35.1 µM	18.6 µM	39.5 µM	2.44 µM	5.53 µM	5.09 µM	17.4 µM	12.7 µM	26.5 µM		
O=C(/C=C/c1ccccc1O)c1cccc2ccccc12						> 100 µM		98.6 µM		> 100 µM		> 100 µM		76.6 µM		> 100 µM		> 100 µM	> 100 µM	
Nc1c(C(=O)NC23CC4CC(CC(C4)C2)C3)[n+]([O-])c2ccccc2[n+]1[O-]						> 100 µM		> 100 µM		> 100 µM		> 100 µM		> 100 µM		> 100 µM		> 100 µM	> 100 µM	
O=C(CCN1CCCC1)Nc1ccc2c(NCCc3ccccc3)c3ccccc3nc2c1	0.367 µM	1.36 µM			0.368 µM	1.75 µM	0.305 µM	1.22 µM	0.374 µM	1.39 µM	0.296 µM	1.05 µM	0.32 µM	1.15 µM	1.27 µM	2.55 µM	0.422 µM	2.07 µM	2.16 µM	0.463 µM
N#Cc1cc([N+](=O)[O-])ccc1NC(=O)C(=O)C(C(=O)c1ccc2ccccc2c1)C1OCc2ccccc21 (stereo not drawn)						32.5 µM		29.5 µM		14.9 µM		20.5 µM		> 66.6 µM		24.8 µM		> 100 µM	37.4 µM	
O=S1c2ccccc2NC(c2ccc3ccccc3c2)CC1c1ccccc1 (stereo not drawn)						49.6 µM		33.7 µM		40.1 µM		47.1 µM		60.8 µM		37.9 µM		> 100 µM	63.9 µM	
Cc1cn([C@H]2C[C@H](O)[C@@H](CO)O2)c(=O)nc1N		> 100 µM		> 100 µM		> 100 µM		> 100 µM		> 100 µM		> 100 µM		> 100 µM		> 100 µM		> 100 µM		
CCCC(=O)c1ccc(=O)n(C)c1						> 100 µM		> 100 µM		> 100 µM		> 100 µM		> 100 µM		> 100 µM		> 100 µM	> 100 µM	
O=C(Oc1ccc2c(-c3ccccc3)c(C(=O)Nc3ccc(Cl)cc3)c(=O)oc2c1)c1ccccc1						> 100 µM		> 100 µM		> 100 µM		> 100 µM		> 100 µM		> 100 µM		> 100 µM	> 100 µM	
O=C(O)c1cn(C2CC2)c2cc(N3CCNCC3)c(F)cc2c1=O	> 100 µM	> 100 µM	42.3 µM	> 100 µM	> 100 µM	> 100 µM			> 100 µM	> 100 µM	> 100 µM	> 100 µM	> 100 µM	> 100 µM	> 100 µM	> 100 µM	> 100 µM	> 100 µM		
Fc1ccc([C@@H]2CCNC[C@H]2COc2ccc3c(c2)OCO3)cc1	13.1 µM	26.5 µM	19.8 µM	62.3 µM	3.52 µM	13.9 µM			15.4 µM	32.5 µM	5.51 µM	18.6 µM	2.4 µM	8.9 µM	4.42 µM	17 µM	12.7 µM	25.7 µM		
CCOc1ccc(NCC2CC/C(=C\c3ccc(Cl)cc3)C2=O)cc1 (stereo not drawn)						> 56.2 µM		35.4 µM		> 73.4 µM		> 100 µM		10.2 µM		> 59.2 µM		> 100 µM	> 73.8 µM	
COc1cc2cnc(-c3ccccc3)cc2cc1OC		> 100 µM		53.8 µM		45.5 µM				56.7 µM		> 100 µM		36 µM		27.7 µM		> 100 µM	34.3 µM	
CCOC(=O)c1ccc(N(C=O)CCC(=O)CCl)cc1	0.366 µM	13.9 µM	0.311 µM	2.89 µM	0.186 µM	1.18 µM	0.0586 µM	1.31 µM	0.483 µM	7.81 µM	0.355 µM	11.1 µM	0.13 µM	2.83 µM	0.344 µM	1.55 µM	1.41 µM	13.2 µM		
O=C1NC(=O)[C@@H](c2c[nH]c3ccccc23)[C@@H]1c1c[nH]c2ccccc12	> 25 µM	> 25 µM	24.8 µM	> 25 µM	> 25 µM	> 25 µM	> 25 µM	> 25 µM	> 25 µM	> 25 µM	> 25 µM	> 25 µM	> 25 µM	> 25 µM	> 25 µM	> 25 µM	> 25 µM	> 25 µM		
CN(C(=O)C12C3C4C1C1C2C3C41C(O)C(C)(C)C)C(C)(C)C (stereo not drawn)						> 100 µM		> 100 µM		> 100 µM		> 100 µM		> 100 µM		> 100 µM		> 100 µM	> 100 µM	
CC(=O)OCCOCNC(=S)N/N=C(\C)c1cccs1						> 100 µM		> 100 µM		> 100 µM		> 100 µM		> 100 µM		> 100 µM		> 100 µM	> 100 µM	
c1ccc2c(c1)Sc1ccccc1N2C1CN2CCC1CC2 (stereo not drawn)						53.9 µM		26.8 µM		74.5 µM		33.4 µM		43.4 µM		29.9 µM		35.4 µM	27.7 µM	
CN1C(=O)CCC1c1ccc2c(c1)oc(=O)n2C (stereo not drawn)						> 100 µM		> 100 µM		> 100 µM		> 100 µM		> 100 µM				> 100 µM	> 100 µM	
ClC1c2ccccc2C2(c3ccccc3)OOC1(c1ccccc1)O2 (stereo not drawn)						3.69 µM		1.31 µM		3.57 µM		3.13 µM		3.17 µM		2.83 µM			4.62 µM	
CNc1ccc([N+](=O)[O-])c2c(NCCCN(C)C)ccnc12						> 100 µM		> 100 µM		> 100 µM		> 100 µM		> 100 µM				> 100 µM	> 100 µM	
